Key:
[1] = system: larvae of the mustard beetle (Phaedon cochleariae); assay: Phaedon cochleariae spray test (PHAECO); assay type: in vivo; conditions: Chinese cabbage leaf discs, after 7 days
How it was run: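 Compound dissolved in acetone/dimethylformamide with alkylaryl polyglycol ether emulsifier, made up in water containing 1000 ppm emulsifier, then diluted to test concentrations and sprayed against mustard beetle larvae. Efficacy (% larvae killed) scored after 7 days.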

[2] = system: L1 larvae of the Australian sheep blowfly (Lucilia cuprina); assay: Lucilia cuprina test (LUCICU); assay type: in vivo; conditions: application rate 100 ppm; after 2 days
Description: E. Lucilia cuprina Test (LUCICU)
(§1) Solvent: dimethyl sulphoxide
(§2) To produce a suitable preparation of active compound, 10 mg of active compound are mixed with 0.5 ml of dimethyl sulphoxide, and the concentrate is diluted with water to the desired concentration.
About 20 L1 larvae of the Australian sheep blowfly (Lucilia cuprina) are transferred into a test vessel containing minced horsemeat and the active compound preparation of the desired concentration.
After 2 days, the kill in % is determined 100% means that all of the larvae have been killed; 0% means that none of the larvae have been killed.

[3] = system: adult houseflies (Musca domestica); assay: Musca domestica test (MUSCDO); assay type: in vivo; conditions: application rate 100 ppm; after 2 days
Description: F. Musca domestica Test (MUSCDO)
as §1, §2
Vessels containing a sponge treated with sugar solution and the active compound preparation of the desired concentration are populated with 10 adult houseflies (Musca domestica).
After 2 days, the kill in % is determined. 100% means that all of the flies have been killed; 0% means that none of the flies have been killed.

[4] = system: adult cat fleas (Ctenocephalides felis); assay: Ctenocephalides felis oral test (CTECFE); assay type: in vivo; conditions: application rate 100 ppm in citrated cattle blood; after 2 days
Description: D. Ctenocephalides felis-oral Test (CTECFE)
as §1
To produce a suitable preparation of active compound, 10 mg of active compound are mixed with 0.5 ml of dimethyl sulphoxide. Dilution with citrated cattle blood gives the desired concentration.
About 20 unfed adult cat fleas (Ctenocephalides felis) are placed into a chamber which is closed at the top and bottom with gauze. A metal cylinder whose bottom end is closed with a parafilm is placed onto the chamber. The cylinder contains the blood/active ingredient preparation, which can be imbibed by the fleas through the parafilm membrane.
After 2 days, the kill in % is determined 100% means that all of the fleas have been killed; 0% means that none of the fleas have been killed.

[5] = system: caterpillars of the armyworm (Spodoptera frugiperda); assay: Spodoptera frugiperda spray test (SPODFR); assay type: in vivo; conditions: application rate 500 g/ha; maize leaf discs; after 7 days
How it was run: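 Maize leaf discs sprayed with compound in acetone/DMF with alkylaryl polyglycol ether emulsifier (1000 ppm) in water, dried, then infested with armyworm caterpillars. Mortality (%) scored after 7 days; 100% = all caterpillars killed, 0% = none killed.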

[6] = system: adult dog ticks (Rhipicephalus sanguineus); assay: Rhipicephalus sanguineus in vitro contact test with adult brown dog ticks (T2); conditions: after 48 h
Description: T2. Rhipicephalus sanguineus-in vitro Contact Tests with Adult Brown Dog Ticks
For the coating of the test tubes, initially 9 mg of active compound are dissolved in 1 ml of acetone p.a. and then diluted with acetone p.a. to the desired concentration. By turning and rocking on an orbital shaker (2 h of rocking rotation at 30 rpm), 250 μl of the solution are distributed homogeneously on the internal walls and the floor of a 25 ml test tube. At 900 ppm active compound solution and 44.7 cm^2 internal surface, an area dose of 5 μg/cm^2 is achieved for homogeneous distribution.
After evaporation of the solvent, the tubes are populated with 5-10 adult dog ticks (Rhipicephalus sanguineus), sealed with a perforated plastic lid and incubated in a horizontal position in the dark at room temperature and ambient humidity. After 48 h, the efficacy is determined. To this end, the ticks are knocked to the floor of the tube and incubated on a hotplate at 45-50° C. for at most 5 min Ticks which remain motionless on the floor or move in an uncoordinated manner such that they are not able to deliberately avoid the heat by climbing upwards are considered to be dead or moribund.
An efficacy of 100% means that all ticks were dead or moribund. 0% efficacy means that none of the ticks had been damaged.

[7] = system: engorged adult female cattle ticks (Boophilus microplus); assay: Boophilus microplus injection test (BOOPMI Inj); assay type: in vivo; conditions: application rate 20 μg/animal; injection into abdomen; assessed after 7 days
Description: C. Boophilus microplus-injection Test (BOOPMI Inj)
as §1
To produce a suitable preparation of active compound, 10 mg of active compound are mixed with 0.5 ml of solvent, and the concentrate is diluted with solvent to the desired concentration.
1 μl of the active compound solution is injected into the abdomen of 5 engorged adult female cattle ticks (Boophilus microplus). The animals are transferred into dishes and kept in a climate-controlled room.
The activity is assessed after 7 days by laying of fertile eggs. Eggs whose fertility is not visible from the outside are stored in a climate-controlled cabinet until the larvae hatch after about 42 days. An efficacy of 100% means that none of the ticks has laid any fertile eggs; 0% means that all eggs are fertile.

[8] = system: adult cat fleas (Ctenocephalides felis); assay: Ctenocephalides felis in vitro contact test with adult cat fleas (T1); conditions: after 48 h
How it was run: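 Test compound was dissolved in acetone p.a. (9 mg per 1 ml) and diluted as needed. 250 μl was spread evenly over the inner walls and floor of a 25 ml test tube by rotating on an orbital shaker for 2 h at 30 rpm. Once the solvent evaporated, 5-10 adult Ctenocephalides felis were added. Tubes were capped with a perforated plastic lid and kept horizontal at room temperature and ambient humidity.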

[9] = system: greenhouse red spider mite (Tetranychus urticae); assay: Tetranychus urticae spray test, OP-resistant (TETRUR); assay type: in vivo; conditions: application rate 500 g/ha; bean leaf discs; after 6 days
How it was run: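 Bean leaf discs carrying all stages of OP-resistant Tetranychus urticae were sprayed with compound formulated in acetone/dimethylformamide and diluted in water with 1000 ppm alkylaryl polyglycol ether emulsifier. Mortality (% efficacy, 100% = all mites killed) scored after 6 days.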

SMILES | efficacy in % ([1]; application rate 500 g/ha) | efficacy (kill in %) [2] | efficacy (kill in %) [3] | efficacy (kill in %) [4] | efficacy in % [5] | efficacy (dead or moribund ticks) ([6]; application rate 1 μg/cm^2) | efficacy (dead or moribund ticks) ([6]; application rate 5 μg/cm^2) | efficacy (laying of fertile eggs) [7] | efficacy in % ([1]; application rate 100 g/ha) | efficacy (dead or moribund fleas) ([8]; application rate 1 μg/cm^2) | efficacy (dead or moribund fleas) ([8]; application rate 5 μg/cm^2) | efficacy in % [9]
Cn1nc(C(F)(F)C(F)(F)F)c(C(F)(F)F)c1-n1cc(-c2cc(C(=O)NC3(C#N)CC3)ccc2Cl)cn1 [Ic-45] | 100% | 100% | 100% | 100% | 100% | – | – | – | – | – | – | –
Cc1cc(C(=O)NC2CC2)cc(-c2cnn(-c3c(C(F)(F)F)c(C(F)(F)C(F)(F)F)nn3C)c2)c1 [Ic-54] | 100% | 100% | – | 100% | – | 100% | 100% | 100% | – | – | – | –
Cc1ccc(C(=O)NC2CC2)cc1-c1cnn(-c2c(C(F)(F)F)c(C(F)(F)C(F)(F)F)nn2C)c1 [Ic-57] | – | 100% | 100% | 100% | – | – | – | – | 83% | – | – | –
Cc1ccc(C(=O)NC2(C#N)CC2)cc1-c1cnn(-c2c(C(F)(F)F)c(C(F)(F)C(F)(F)F)nn2C)c1 [Ic-58] | 100% | 100% | 80% | 100% | – | – | – | 100% | – | – | – | –
Cn1nc(C(F)(F)C(F)(F)F)c(C(F)(F)F)c1-n1cc(-c2cc(C(=O)NC3(C#N)CC3)cc(C(F)(F)F)c2)cn1 [Ic-60] | 100% | 100% | 100% | 100% | 100% | – | – | 100% | – | – | – | –
COc1cc(C(=O)NC2CC2)cc(-c2cnn(-c3c(C(F)(F)F)c(C(F)(F)C(F)(F)F)nn3C)c2)c1 [Ic-62] | 100% | 100% | 100% | 95% | 100% | – | – | 100% | – | – | – | –
Cn1nc(C(F)(F)C(F)(F)F)c(C(F)(F)F)c1-n1cc(-c2ccc(Cl)c(C(=O)Nc3cccnc3)c2)cn1 [Ic-149] | 100% | 100% | – | 100% | 100% | – | – | 100% | – | 80% | 100% | 100%
Cn1nc(C(F)(F)C(F)(F)F)c(C(F)(F)F)c1-n1cc(-c2ccc(Cl)c(C(=O)NCc3cc[nH]n3)c2)cn1 [Ic-157] | 100% | 100% | – | 90% | 100% | – | – | 100% | – | – | – | 100%
COCC(C)NC(=O)c1cc(-c2cnn(-c3c(C(F)(F)F)c(C(F)(F)C(F)(F)F)nn3C)c2)ccc1Cl (stereo not drawn) [Ic-165] | 100% | 100% | – | 100% | 100% | – | – | 100% | – | 100% | 100% | 100%

From patent publication US9487489B2, “Halogen-substituted pyrazole derivatives as pest-control agents” (BAYER CROPSCIENCE AKTIENGESELLSCHAFT, priority 2013, dated 2016)
